Here are results for 17 compounds from article PMC12903969, “Discovery of a Novel and Potent Kir4.1 Inhibitor as a Safe and Rapid‐Onset Antidepressant Agent in Mice” (Advanced Science, 2025).

SMILES strings stand for the structures. Where two headings read alike, the source gives them in different places.

Assay [1] relates to MDA-MB-468 breast cancer cells. Nature of the assay: Cytotoxicity test (CCK-8). The assay is classed as cell-based. The procedure: Cytotoxicity of all the tested compounds was determined using the cell counting kit‐8 (CCK‐8) assay kit (Beyotime, Shanghai, China). Briefly, MDA‐MB‐468 was cultured in L15 medium and plated in 96‐well plates at a density of 12,000 cells per well for 24 h at 37 °C in a 5% CO2 incubator. The tested compounds were dissolved in DMSO and diluted with culture medium (DMSO final concentration < 0.4%). Then the cells were treated with compounds (0.41, 1.23, 3.70, 11.11, 33.33, 100.00 µM) for 48 h. After treatments, removal of the supernatant liquor, 100 µL of new media diluted CCK‐8 solution (10% CCK‐8) was added into each well and incubated at 37 °C for 2 h. The absorbance of the mixture was directly measured at 450 nm. The results are presented as a percentage of the control.

The target of a further assay is T1, Kir4.1 (Homo sapiens, UniProt P78508).
T1 construct: host or cells: CHO-K1
T1 sequence (P78508 1-379): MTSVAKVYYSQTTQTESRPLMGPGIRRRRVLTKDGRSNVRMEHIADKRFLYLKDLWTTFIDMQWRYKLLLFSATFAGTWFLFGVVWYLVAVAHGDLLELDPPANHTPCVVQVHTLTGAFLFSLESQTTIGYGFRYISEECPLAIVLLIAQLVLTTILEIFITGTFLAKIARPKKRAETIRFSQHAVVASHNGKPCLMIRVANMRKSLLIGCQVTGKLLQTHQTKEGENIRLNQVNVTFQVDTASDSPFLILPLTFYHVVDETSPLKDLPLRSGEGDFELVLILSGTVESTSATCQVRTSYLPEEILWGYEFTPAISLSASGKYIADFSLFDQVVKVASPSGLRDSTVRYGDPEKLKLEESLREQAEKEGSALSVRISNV
Nature of the assay: Whole-cell patch clamp, Kir4.1 currents in transfected CHO-K1 cells. The format is cell-based. The settings on record: for inhibition at 0.5 µM: CHO-K1, 0.5 μM; for inhibition at 1 µM: CHO-K1, 1 μM; for inhibition at 10 µM: CHO-K1, 10 μM; for IC50: whole-cell patch clamp. The procedure:
Plasmids encoding WT human potassium channels Kir1.1, Kir2.1, Kir2.2, Kir4.1, and Kir4.2 were obtained from the Beijing Genomics Institute. All point mutations were constructed using the QuickChange II Site‐Directed Mutagenesis Kit (Stratagene) and subsequently verified by sequencing.
CHO‐K1 cells were maintained in DMEM/F12 growth medium containing 10% fetal bovine serum. Plasmids encoding the target genes (3600 ng) and enhanced green fluorescent protein (400 ng) were cotransfected into cells using Lipofectamine 2000 (Invitrogen) in accordance with the manufacturer's instructions. Cells were seeded onto poly‐d‐lysine (PDL)‐coated glass coverslips 1 h prior to electrophysiological recordings. All cells were cultured under standard conditions of 5% CO2 at 37 °C.
Whole‐cell patch‐clamp recordings were obtained either in transiently transfected CHO‐K1 cells or in primary cultured astrocytes at room temperature using standard patch‐clamp techniques with an Axopatch‐700B amplifier (Axon Instruments). The signals were filtered at 2 kHz and sampled at 20 kHz using the Digidata 1440A interface (Axon Instruments). The resistance of borosilicate glass pipettes was typically 2–4 MΩ when filled with the internal solution. Drug application was facilitated using a BPS perfusion system (ALA Scientific Instruments). Macroscopic currents generated by expressed potassium channels were recorded under the voltage‐clamp conditions with an internal pipette solution composed of (in mM): 140 KCl, 5 NaCl, 1 CaCl2, 1 MgCl2, 10 HEPES, and 10 EGTA, pH 7.2 adjusted with KOH. The external solution contained (in mM): 140 NaCl, 5 KCl, 2 CaCl2, 1 MgCl2, 10 glucose, and 10 HEPES, pH 7.4 adjusted with NaOH. Currents were elicited with a hyperpolarized voltage at −120 mV from the holding potential of −80 mV, followed by a ramp voltage depolarizing to +50 mV. Astrocytic resting membrane potentials were recorded under current‐clamp conditions (I = 0 pA) using standard internal and external solutions, determined immediately after achieving whole‐cell mode.

Where [2] appears, read: +50 mV, read-out: Kir4.1 Inhibition ± SD (%) at 0.5 μM, +50 mV.
Setting [3] is: -120 mV, read-out: Kir4.1 Inhibition ± SD (%) at 0.5 μM, -120 mV.
[4] abbreviates: +50 mV, read-out: Kir4.1 Inhibition ± SD (%) at 1 μM, +50 mV.
[5] abbreviates: -120 mV, read-out: Kir4.1 Inhibition ± SD (%) at 1 μM, -120 mV.
The mark [6] stands for this setting: +50 mV, read-out: Kir4.1 Inhibition ± SD (%) at 10 μM, +50 mV.
The mark [7] stands for this setting: -120 mV, read-out: Kir4.1 Inhibition ± SD (%) at 10 μM, -120 mV.
[8] abbreviates: Homo sapiens, MDA-MB-468, MDA-MB-468 breast cancer cells, read-out: IC50 ± SD (μM) for MDA-MB-468 Inhibition.

A word on the IC50: it is the concentration that gives 50% inhibition. A word on the inhibition: it is the relative decrease from the control value, in per cent. Take `CCn1c2ccccc2c2cc(Nc3ccnc(NCCCN4CCOCC4)n3)ccc21` [EHop-016, N ^4‐(9‐ethyl‐9H‐carbazole‐3‐yl)‐N ^2‐(3‐morpholinopropyl)pyrimidine‐2,4‐diamine, reference compound]: the IC50 turned out to be 5.98 ± 0.67 µM in assay [1] (Homo sapiens, MDA-MB-468, 48 h, CCK-8, 48 h, read-out: IC50 against MDA-MB-468 breast cancer cells); 0.61 µM on Kir4.1 (CHO cells transiently expressing Kir4.1, +50 mV, read-out: IC50 for Kir4.1 inhibition (+50 mV, outward currents)); 0.74 µM at Kir4.1 (CHO cells transiently expressing Kir4.1, −120 mV, read-out: IC50 for Kir4.1 inhibition (−120 mV, inward currents)). The inhibition at 0.5 µM was 17.2 ± 2.53% at Kir4.1 (setting [2]) and 19 ± 3.75% on Kir4.1 (setting [3]). Also, the figures for the inhibition at 1 µM on Kir4.1 (setting [4]) and at Kir4.1 (setting [5]) were 76 ± 1.81% and 64.6 ± 5.93%, respectively. Further, the inhibition at 10 µM was 96.6 ± 1.38% on Kir4.1 (setting [6]) and 97 ± 1.86% on Kir4.1 (setting [7]).
`Nc1ccnc(NCCCN2CCOCC2)n1` [JX3201, N^2-(3-morpholinopropyl)pyrimidine-2,4-diamine]: in assay [1] (setting [8]), the IC50 is more than 50 µM. The values for the inhibition at 10 µM at Kir4.1 (setting [6]) and on Kir4.1 (setting [7]) were 3.02 ± 1.37% and 4.04 ± 7.66%, respectively.
For `c1cc(NC2CCCCC2)nc(NCCCN2CCOCC2)n1` [JX3202, N^4-cyclohexyl-N^2-(3-morpholinopropyl)pyrimidine-2,4-diamine], the IC50 in assay [1] (setting [8]) worked out at 21.1 ± 2.08 µM. Further, the inhibition at 10 µM on Kir4.1 (setting [6]) is 6.08 ± 3.06%; at Kir4.1 (setting [7]), 2.79 ± 2.22%.
For the compound `c1cc(NC23CC4CC(CC(C4)C2)C3)nc(NCCCN2CCOCC2)n1` [JX3203, N^4-((1s,3s)-adamantan-1-yl)-N^2-(3-morpholinopropyl)pyrimidine-2,4-diamine], the IC50 in assay [1] (MDA-MB-468 breast cancer cells, read-out: IC50 ± SD (μM) for MDA-MB-468 Inhibition) was found to be 22.2 ± 5.05 µM. For the same compound, at Kir4.1 (10 μM, +50 mV), the “Kir4.1 Inhibition ± SD (%) at 10 μM, +50 mV” value was found to be 64.79 ± 0.85%. The “Kir4.1 Inhibition ± SD (%) at 10 μM, -120 mV” value on Kir4.1 (10 μM, -120 mV) is listed as 31.27 ± 3.29%.
On to `c1ccc(Nc2ccnc(NCCCN3CCOCC3)n2)cc1` [JX3204, N^2-(3-morpholinopropyl)-N^4-phenylpyrimidine-2,4-diamine], for which the IC50 in assay [1] (setting [8]) was more than 50 µM. In addition, the inhibition at 10 µM at Kir4.1 (setting [6]) worked out at 5.73 ± 2.33%; at Kir4.1 (setting [7]) it was 0.47 ± 2.29%.
Take `c1ccc2cc(Nc3ccnc(NCCCN4CCOCC4)n3)ccc2c1` [JX3205, N^2-(3-morpholinopropyl)-N^4-(naphthalen-2-yl)pyrimidine-2,4-diamine]: the IC50 in assay [1] (setting [8]) was determined as 16.9 ± 1.65 µM. For the same compound, the results for the inhibition at 10 µM on Kir4.1 (setting [6]) and at Kir4.1 (setting [7]) were 36.5 ± 10.2% and 8.88 ± 10.2%, respectively.
As for `c1cc(Nc2ccc3[nH]ccc3c2)nc(NCCCN2CCOCC2)n1` [JX3206, N^4-(1H-indol-5-yl)-N^2-(3-morpholinopropyl)pyrimidine-2,4-diamine], the IC50 in assay [1] (setting [8]) was more than 50 µM. Further, the figures for the inhibition at 10 µM at Kir4.1 (setting [6]) and on Kir4.1 (setting [7]) were 38.4 ± 5.37% and 25.9 ± 1.96%, respectively.
Turning to `O=c1c2ccccc2[nH]c2ccc(Nc3ccnc(NCCCN4CCOCC4)n3)cc12` [JX3208, 2-((2-((3-morpholinopropyl)amino)pyrimidin-4-yl)amino)acridin-9(10H)-one], the IC50 in assay [1] (setting [8]) was determined as 16.8 ± 0.51 µM. Also, the figures for the inhibition at 10 µM at Kir4.1 (setting [6]) and on Kir4.1 (setting [7]) were 1.43 ± 3.1% and 2.21 ± 9.84%, respectively.
Consider `c1ccc2nc3ccc(Nc4ccnc(NCCCN5CCOCC5)n4)cc3cc2c1` [JX3209, N^4-(acridin-2-yl)-N^2-(3-morpholinopropyl)pyrimidine-2,4-diamine], for which the IC50 in assay [1] (setting [8]) was determined as 38.4 ± 4.21 µM. In addition, the figures for the inhibition at 1 µM at Kir4.1 (setting [4]) and at Kir4.1 (setting [5]) were -0.09 ± 6.09% and 5.58 ± 4.14%, respectively. The inhibition at 10 µM at Kir4.1 (setting [6]) turned out to be 85.9 ± 3.9%; at Kir4.1 (setting [7]), 86.4 ± 4.85%.
The like results for `CC1(C)c2ccccc2-c2cc(Nc3ccnc(NCCCN4CCOCC4)n3)ccc21` [JX3210, N^4-(9,9-dimethyl-9H-fluoren-3-yl)-N^2-(3-morpholinopropyl)pyrimidine-2,4-diamine] were, in that order, 2.66 ± 0.51 µM, 62 ± 4.2%, 42.7 ± 2.34%, 93.2 ± 3.42% and 98.69 ± 0.66%.
For `O=C1c2ccccc2-c2cc(Nc3ccnc(NCCCN4CCOCC4)n3)ccc21` [JX3211, 3-((2-((3-morpholinopropyl)amino)pyrimidin-4-yl)amino)-9H-fluoren-9-one] the same measures were 29.8 ± 0.5 µM, 28.8 ± 5.45%, 21.3 ± 8.61%, 89.2 ± 1.72% and 81 ± 2.36%.
For `c1ccc2c3c([nH]c2c1)CCC(Nc1ccnc(NCCCN2CCOCC2)n1)C3` (stereo not drawn) [JX3213, N^2-(3-morpholinopropyl)-N^4-(2,3,4,9-tetrahydro-1H-carbazol-3-yl)pyrimidine-2,4-diamine] the same measures were 17.7 ± 3.05 µM, 55 ± 3.87%, 41.2 ± 4.03%, 79.1 ± 3.7% and 65.1 ± 4.67%.
For the compound `C1=Nc2ccccc2Oc2ccc(Nc3ccnc(NCCCN4CCOCC4)n3)cc21` [JX3214, N^4-(dibenzo[b,f][1,4]oxazepin-2-yl)-N^2-(3-morpholinopropyl)pyrimidine-2,4-diamine], the IC50 in assay [1] (setting [8]) is 4.64 ± 0.41 µM. Further, the inhibition at 1 µM was 60.4 ± 6.32% on Kir4.1 (setting [4]) and 56.6 ± 3.9% on Kir4.1 (setting [5]). In addition, the results for the inhibition at 10 µM at Kir4.1 (setting [6]) and on Kir4.1 (setting [7]) were 93.6 ± 4.14% and 94.52 ± 0.7%, respectively.
As for `c1ccc2c(c1)ccc1[nH]c3ccc(Nc4ccnc(NCCCN5CCOCC5)n4)cc3c12` [JX3215, N^4-(7H-benzo[c]carbazol-10-yl)-N^2-(3-morpholinopropyl)pyrimidine-2,4-diamine], in assay [1] (setting [8]), the IC50 turned out to be 6.72 ± 0.28 µM. The inhibition at 0.5 µM on Kir4.1 (setting [2]) turned out to be 39.5 ± 5.16%; on Kir4.1 (setting [3]) it was 30.3 ± 5.33%. For the same compound, the inhibition at 1 µM at Kir4.1 (setting [4]) was 79.3 ± 3.86%; on Kir4.1 (setting [5]) it was 71 ± 2.19%. Further, the figures for the inhibition at 10 µM on Kir4.1 (setting [6]) and at Kir4.1 (setting [7]) were 95.83 ± 0.42% and 89.8 ± 1.62%, respectively.
Regarding `Cc1cnc(NCCCN2CCOCC2)nc1Nc1ccc2oc3ccccc3c2c1` [JX3216, N^4-(dibenzo[b,d]furan-2-yl)-5-methyl-N^2-(3-morpholinopropyl)pyrimidine-2,4-diamine], the IC50 in assay [1] (setting [8]) is 17.9 ± 0.65 µM. Moreover, the inhibition at 1 µM turned out to be 16.8 ± 8.93% on Kir4.1 (setting [4]) and 9.55 ± 3.62% on Kir4.1 (setting [5]). The inhibition at 10 µM at Kir4.1 (setting [6]) amounted to 97.02 ± 0.67%; at Kir4.1 (setting [7]), 92 ± 1.98%.
For `Fc1cnc(NCCCN2CCOCC2)nc1Nc1ccc2oc3ccccc3c2c1` [JX3217, N^4-(dibenzo[b,d]furan-2-yl)-5-fluoro-N^2-(3-morpholinopropyl)pyrimidine-2,4-diamine], the IC50 in assay [1] (setting [8]) was more than 50 µM. Moreover, the inhibition at 10 µM at Kir4.1 (setting [6]) amounted to 11.9 ± 10.1%; on Kir4.1 (setting [7]), 7.77 ± 6.65%.
For `COc1cnc(NCCCN2CCOCC2)nc1Nc1ccc2oc3ccccc3c2c1` [JX3218, N^4-(dibenzo[b,d]furan-2-yl)-5-methoxy-N^2-(3-morpholinopropyl)pyrimidine-2,4-diamine], the IC50 in assay [1] (setting [8]) came to 13.3 ± 0.3 µM. Moreover, the inhibition at 1 µM at Kir4.1 (setting [4]) was determined as 1.15 ± 2.32%; on Kir4.1 (setting [5]), 3.97 ± 2.03%. In addition, the inhibition at 10 µM on Kir4.1 (setting [6]) was determined as 86.8 ± 1.76%; at Kir4.1 (setting [7]), 74.3 ± 4.51%.
